Results as given in patent US12479827B2, “Heteroaromatic carboxamide derivatives as plasma kallikrein inhibitors” (Boehringer Ingelheim International GmbH, priority 2020, dated 2025).
pIC50: −log10 of the molar value.

The molecules below were run against T1, Human PKK (Homo sapiens, UniProt P03952) (assay: Inhibition of PKK using an endpoint assay (human PKK)). Details: fluorogenic substrate H-Pro-Phe-Arg-AMC, 1 h room temperature, method names human or rat PKK, table does not say which.
T1 construct: purchased Enzyme Research Laboratories
Format: biochemical
Method: The ability of compounds of formula (I) to inhibit plasma kallikrein (PKK), Factor XIIa (FXIIa), Factor XIa (FXIa), Factor Xa (FXa), Factor IIa (alpha-thrombin; FIIa), plasmin, trypsin, tissue kallikrein 1 (TK1), Factor VIIa (FVIIa), or FVIIa complexed with Tissue Factor, phospholipids and CaCl2 (FVIIa/TF/PL/CaCl2) is determined using the following biochemical assays in assay buffer (100 mM Tris, 150 mM NaCL, adjusted to a pH of 7.8 with HCl, and containing 0.1% (w/v) BSA and 0.05% (v/v) Tween20) in the presence of 1% (v/v) DMSO:
Subsequently, PPACK II (Calbiochem) is added as a stop solution to achieve a final concentration of 1 μM and fluorescence is measured using an Envision Reader (PerkinElmer) with the wavelength excitation setting of 355 nm and the wavelength emission setting of 460 nm.

T1 sequence (P03952 20-390 limits assumed): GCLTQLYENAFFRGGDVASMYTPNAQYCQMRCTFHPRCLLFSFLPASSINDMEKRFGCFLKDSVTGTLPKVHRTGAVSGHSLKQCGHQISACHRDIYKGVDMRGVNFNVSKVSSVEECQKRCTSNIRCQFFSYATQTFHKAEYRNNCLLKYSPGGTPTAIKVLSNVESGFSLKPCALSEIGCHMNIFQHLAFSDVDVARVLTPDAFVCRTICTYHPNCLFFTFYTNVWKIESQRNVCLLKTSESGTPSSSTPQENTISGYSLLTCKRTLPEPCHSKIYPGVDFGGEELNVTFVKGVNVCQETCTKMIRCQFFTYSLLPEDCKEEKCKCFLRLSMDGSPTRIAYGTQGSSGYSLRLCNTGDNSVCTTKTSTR
T1 sequence (P03952 391-638 limits assumed): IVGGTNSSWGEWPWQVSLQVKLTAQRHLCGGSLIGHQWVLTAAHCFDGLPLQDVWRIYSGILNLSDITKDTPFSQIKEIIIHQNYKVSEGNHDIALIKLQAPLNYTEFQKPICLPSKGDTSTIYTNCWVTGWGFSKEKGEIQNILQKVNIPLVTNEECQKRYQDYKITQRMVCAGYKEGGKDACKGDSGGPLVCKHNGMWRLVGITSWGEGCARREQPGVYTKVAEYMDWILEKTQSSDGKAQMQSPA

Point of comparison: `Cc1cc(N2CC3CC3C2)c(C#N)cc1Cn1cc(C(=O)N[C@@H]2CCc3c2ncn3C)cn1` (stereo partly drawn) [Example 200, 1-[(4-{3-azabicyclo[3.1.0]hexan-3-yl}-5-cyano-2-methylphenyl)methyl]-N-[(4R)-1-methyl-1H,4H,5H,6H-cyclopenta[d]imidazol-4-yl]-1H-pyrazole-4-carboxamide], pIC50 8.07. Against it:
- Cn1cnc2c1CC[C@H]2NC(=O)c1cnn(Cc2ccc(N3CC4(CC4)C3)cn2)c1 [Example 19, 1-[(5-{5-Azaspiro[2.3]hexan-5-yl}pyridin-2-yl)-methyl]-N-[(4R)-1-methyl-1H,4H,5H,6H-cyclopenta[d]imidazol-4-yl]-1H-pyrazole-4-carboxamide] — 0.22 log units lower, 7.85
- Cn1cnc2c1CC[C@H]2NC(=O)c1cn(Cc2ccc(N3CC4CC4C3)nc2OC(F)(F)F)cn1 (stereo partly drawn) [Example 38, 1-[(6-{3-Azabicyclo[3.1.0]hexan-3-yl}-2-(trifluoromethoxy)-pyridin-3-yl)methyl]-N-[(4R)-1-methyl-1H,4H,5H,6H-cyclopenta[d]imidazol-4-yl]-1H-imidazole-4-carboxamide] — 0.40 log units higher, 8.47
- Cn1cnc2c1CC[C@H]2NC(=O)c1cnn(Cc2ccc(N3CC4CC4C3)nc2OC(F)(F)F)c1 (stereo partly drawn) [Example 58, 1-[(6-{3-Azabicyclo[3.1.0]hexan-3-yl}-2-(trifluoromethoxy)-pyridin-3-yl)methyl]-N-[(4R)-1-methyl-1H,4H,5H,6H-cyclopenta[d]imidazol-4-yl]-1H-pyrazole-4-carboxamide] — 0.53 log units higher, 8.60
- CC(CO)c1nc(N2CC3CC3C2)ccc1Cn1cc(C(=O)N[C@@H]2CCc3c2ncn3C)cn1 (stereo partly drawn) [Example 59, 1-[(6-{3-Azabicyclo[3.1.0]hexan-3-yl}-2-(1-hydroxypropan-2-yl)pyridin-3-yl)methyl]-N-[(4R)-1-methyl-1H,4H,5H,6H-cyclopenta[d]imidazol-4-yl]-1H-pyrazole-4-carboxamide] — 1.33 log units higher, 9.40
- Cn1cnc2c1CC[C@H]2NC(=O)c1cnn(Cc2ccc(N3CC4CC4C3)nn2)c1 (stereo partly drawn) [Example 60, 1-[(6-{3-Azabicyclo[3.1.0]hexan-3-yl}pyridazin-3-yl)methyl]-N-[(4R)-1-methyl-1H,4H,5H,6H-cyclopenta[d]imidazol-4-yl]-1H-pyrazole-4-carboxamide] — 0.34 log units lower, 7.73
- Cn1cnc2c1CC[C@H]2NC(=O)c1cn(Cc2ccc(N3CC4(CC4)C3)nc2CO)nn1 [Example 61, 1-[(6-{5-Azaspiro[2.3]hexan-5-yl}-2-(hydroxymethyl)-pyridin-3-yl)methyl]-N-[(4R)-1-methyl-1H,4H,5H,6H-cyclo-penta[d]imidazol-4-yl]-1H-1,2,3-triazole-4-carboxamide] — 0.44 log units higher, 8.51
- CC(C)Cc1nc(N2CC3CC3C2)ccc1Cn1cnc(C(=O)N[C@@H]2CCc3c2ncn3C)c1 (stereo partly drawn) [Example 100, 1-[(6-{3-Azabicyclo[3.1.0]hexan-3-yl}-2-(2-methylpropyl)pyridin-3-yl)methyl]-N-[(4R)-1-methyl-1H,4H,5H,6H-cyclopenta[d]imidazol-4-yl]-1H-imidazole-4-carboxamide] — within 0.2 log units, 8.25
- Cc1cc(Cn2cnc(C(=O)N[C@@H]3CCc4c3ncn4C)c2)c(C)nc1N1CC2CC2C1 (stereo partly drawn) [Example 129, 1-[(6-{3-Azabicyclo[3.1.0]hexan-3-yl}-2,5-dimethylpyridin-3-yl)methyl]-N-[(4R)-1-methyl-1H,4H,5H,6H-cyclopenta[d]imidazol-4-yl]-1H-imidazole-4-carboxamide] — 0.44 log units lower, 7.63
- Cc1cc(Cn2cc(C(=O)N[C@@H]3CCc4c3ncn4C)cn2)c(C)nc1N1CC2CC2C1 (stereo partly drawn) [Example 130, 1-[(6-{3-Azabicyclo[3.1.0]hexan-3-yl}-2,5-dimethylpyridin-3-yl)methyl]-N-[(4R)-1-methyl-1H,4H,5H,6H-cyclopenta[d]imidazol-4-yl]-1H-pyrazole-4-carboxamide] — 0.37 log units lower, 7.70
- Cn1cnc2c1CC[C@H]2NC(=O)c1cn(Cc2ccc(N3CC4C(C3)C4(F)F)cn2)nn1 (stereo partly drawn) [Example 138, 1-[(5-{6,6-Difluoro-3-azabicyclo[3.1.0]hexan-3-yl}pyridin-2-yl)methyl]-N-[(4R)-1-methyl-1H,4H,5H,6H-cyclopenta[d]imidazol-4-yl]-1H-1,2,3-triazole-4-carboxamide] — 0.59 log units higher, 8.66
- CCc1nc(N2CC3(CC3)C2)ccc1Cc1cc(C(=O)N[C@@H]2CCc3c2ncn3C)on1 [Example 156, 3-[(6-{5-Azaspiro[2.3]hexan-5-yl}-2-ethylpyridin-3-yl)methyl]-N-[(4R)-1-methyl-1H,4H,5H,6H-cyclopenta[d]imidazol-4-yl]-1,2-oxazole-5-carboxamidef] — 1.03 log units higher, 9.10
- Cn1cnc2c1CC[C@H]2NC(=O)c1cc(Cc2ccc(N3CC4(CC4)C3)nc2Cl)no1 [Example 157, 3-[(6-{5-Azaspiro[2.3]hexan-5-yl}-2-chloropyridin-3-yl)methyl]-N-[(4R)-1-methyl-1H,4H,5H,6H-cyclopenta[d]imidazol-4-yl]-1,2-oxazole-5-carboxamide] — 0.85 log units higher, 8.92
- Cc1nc(N2CC3(CC3)C2)ncc1Cn1cnc(C(=O)N[C@@H]2CCc3c2ncn3C)c1 [Example 172, 1-[(2-{5-Azaspiro[2.3]hexan-5-yl}-4-methylpyrimidin-5-yl)methyl]-N-[(4R)-1-methyl-1H,4H,5H,6H-cyclopenta[d]imidazol-4-yl]-1H-imidazole-4-carboxamide] — within 0.2 log units, 8.09
- Cn1cnc2c1CC[C@H]2NC(=O)c1cn(Cc2ccc(N3CC4C(C3)C4(F)F)nc2)c(Cl)n1 (stereo partly drawn) [Example 176, 2-Chloro-1-[(6-{6,6-difluoro-3-azabicyclo-[3.1.0]hexan-3-yl}pyridin-3-yl)methyl]-N-[(4R)-1-methyl-1H,4H,5H,6H-cyclopenta[d]imidazol-4-yl]-1H-imidazole-4-carboxamide] — 0.31 log units higher, 8.38
- CCc1nc(N2CC3CC3C2)ccc1Cc1ccc(C(=O)N[C@@H]2CCc3c2ncn3C)s1 (stereo partly drawn) [Example 183, 5-[(6-{3-Azabicyclo[3.1.0]hexan-3-yl}-2-ethylpyridin-3-yl)methyl]-N-[(4R)-1-methyl-1H,4H,5H,6H-cyclopenta[d]imidazol-4-yl]thiophene-2-carboxamide] — 0.36 log units lower, 7.71
- Cc1nc(N2CC3C(C2)C3(F)F)ccc1Cc1ccc(C(=O)N[C@@H]2CCc3c2ncn3C)o1 (stereo partly drawn) [Example 189, 5-[(6-{6,6-Difluoro-3-azabicyclo[3.1.0]hexan-3-yl}-2-methylpyridin-3-yl)methyl]-N-[(4R)-1-methyl-1H,4H,5H,6H-cyclopenta[d]imidazol-4-yl]furan-2-carboxamide] — 0.41 log units lower, 7.66
- Cn1cnc2c1CC[C@H]2NC(=O)c1cnn(Cc2cc(F)c(N3CC4CC4C3)c(F)c2)c1 (stereo partly drawn) [Example 191, 1-[(4-{3-Azabicyclo[3.1.0]hexan-3-yl}-3,5-difluorophenyl)methyl]-N-[(4R)-1-methyl-1H,4H,5H,6H-cyclopenta[d]imidazol-4-yl]-1H-pyrazole-4-carboxamide] — 1.30 log units lower, 6.77
- Cn1cnc2c1CC[C@H]2NC(=O)c1cnc(Cc2cc(F)c(N3CC4CC4C3)c(F)c2)[nH]1 (stereo partly drawn) [Example 192, 2-[(4-{3-azabicyclo[3.1.0]hexan-3-yl}-3,5-difluorophenyl)methyl]-N-[(4R)-1-methyl-1H,4H,5H,6H-cyclopenta[d]imidazol-4-yl]-1H-imidazole-4-carboxamide] — 2.35 log units lower, 5.72
- Cn1cnc2c1CC[C@H]2NC(=O)c1cnn(Cc2cc(F)c(N3CC4CC4C3)c(C#N)c2)c1 (stereo partly drawn) [Example 195, 1-[(4-{3-azabicyclo[3.1.0]hexan-3-yl}-3-cyano-5-fluorophenyl)methyl]-N-[(4R)-1-methyl-1H,4H,5H,6H-cyclopenta[d]imidazol-4-yl]-1H-pyrazole-4-carboxamide] — 0.38 log units lower, 7.69
- Cn1cnc2c1CC[C@H]2NC(=O)c1cnn(Cc2cc(C#N)c(N3CC4CC4C3)c(C#N)c2)c1 (stereo partly drawn) [Example 197, 1-[(4-{3-azabicyclo[3.1.0]hexan-3-yl}-3,5-dicyanophenyl)methyl]-N-[(4R)-1-methyl-1H,4H,5H,6H-cyclopenta[d]imidazol-4-yl]-1H-pyrazole-4-carboxamide] — 0.20 log units lower, 7.87
- Cc1cc(N2CC3CC3C2)ccc1Cn1cnc(C(=O)N[C@@H]2CCc3c2ncn3C)c1 (stereo partly drawn) [Example 205, 1-[(4-{3-azabicyclo[3.1.0]hexan-3-yl}-2-methylphenyl)methyl]-N-[(4R)-1-methyl-1H,4H,5H,6H-cyclopenta[d]imidazol-4-yl]-1H-imidazole-4-carboxamide] — within 0.2 log units, 8.08
- COc1nc(N2CC3C(C2)C3(F)F)ccc1Cn1cc(C(=O)N[C@@H]2CCc3c2ncn3C)cn1 (stereo partly drawn) [Example 221, 1-[(6-{6,6-Difluoro-3-azabicyclo[3.1.0]hexan-3-yl}-2-methoxypyridin-3-yl)methyl]-N-[(4R)-1-methyl-1H,4H,5H,6H-cyclopenta[d]imidazol-4-yl]-1H-pyrazole-4-carboxamide] — 0.48 log units higher, 8.55
- Cc1nc(N2CCC3(CC2)CC(C)(O)C3)ncc1Cn1cc(C(=O)N[C@@H]2CCc3c2ncn3C)cn1 [Example 223, 1-[(2-{2-Hydroxy-2-methyl-7-azaspiro[3.5]nonan-7-yl}-4-methylpyrimidin-5-yl)methyl]-N-[(4R)-1-methyl-1H,4H,5H,6H-cyclopenta[d]imidazol-4-yl]-1H-pyrazole-4-carboxamide] — 2.95 log units lower, 5.12
- Cc1nc(N2C[C@@H]3[C@H](C#N)[C@@H]3C2)ncc1Cn1cc(C(=O)N[C@@H]2CCc3c2ncn3C)cn1 [Example 224, 1-({2-[(1R,5S,6S)-6-Cyano-3-azabicyclo[3.1.0]Lhexan-3-yl]-4-methylpyrimidin-5-yl}methyl)-N-[(4R)-1-methyl-1H,4H,5H,6H-cyclopenta[d]imidazol-4-yl]-1H-pyrazole-4-carboxamide] — 1.55 log units lower, 6.52
